In the assay the target is T1, XcOGT (Xanthomonas campestris, UniProt Q8PC69).
T1 sequence (Q8PC69 1-568): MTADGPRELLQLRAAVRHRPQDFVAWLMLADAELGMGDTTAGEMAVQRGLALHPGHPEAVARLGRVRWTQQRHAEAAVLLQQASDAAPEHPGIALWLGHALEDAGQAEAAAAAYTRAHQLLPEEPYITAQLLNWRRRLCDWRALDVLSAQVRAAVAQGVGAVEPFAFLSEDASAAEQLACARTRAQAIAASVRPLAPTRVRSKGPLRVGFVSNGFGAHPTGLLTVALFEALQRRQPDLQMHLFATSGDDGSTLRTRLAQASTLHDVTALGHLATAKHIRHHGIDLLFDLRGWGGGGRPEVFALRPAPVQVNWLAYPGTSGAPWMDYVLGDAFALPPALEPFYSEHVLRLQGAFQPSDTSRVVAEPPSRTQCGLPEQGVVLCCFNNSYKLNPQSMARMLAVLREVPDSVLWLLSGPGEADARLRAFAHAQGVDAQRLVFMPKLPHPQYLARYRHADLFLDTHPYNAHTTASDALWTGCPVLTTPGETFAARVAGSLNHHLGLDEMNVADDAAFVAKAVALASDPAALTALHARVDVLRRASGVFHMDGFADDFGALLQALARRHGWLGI
Kind of assay: surface plasmon resonance. The assay is classed as binding. A general note: Surface plasmon resonance follows binding to a sensor surface in real time, without labels.

As usually defined, the Kd is the free concentration of one partner at which half of the binding sites on the other are occupied at equilibrium, for simple one-to-one binding. `CC(=O)N[C@H]1[C@@H](OP(=O)(O)OP(=O)(O)OC[C@H]2O[C@@H](n3ccc(=O)[nH]c3=O)[C@H](O)[C@@H]2O)O[C@H](CO)[C@@H](O)[C@@H]1O` [UDP-GlcNAc] gave a Kd of 4.2 µM.

Values taken from article PMC2556091 (The EMBO Journal, 2008).
